{"source": "ChEMBL document CHEMBL6182861", "about": "“Structural modification of heptamethine indocyanine dyes with improved aqueous solubility and stability for photothermal therapy” (Eur J Med Chem, 2025)", "key": {"4T1 [1]": {"test_system": "4T1", "experiment": "Cytotoxicity against mouse 4T1 cells assessed as cell viability under dark condition up to 25 uM incubated for 24 hrs by MTT assay relative to control", "type": "functional"}, "HepG2 [2]": {"test_system": "HepG2", "experiment": "Cytotoxicity against human HepG2 cells assessed as cell viability under dark condition up to 25 uM incubated for 24 hrs by MTT assay relative to control", "type": "functional"}, "Mitochondrial membrane": {"test_system": "Mitochondrial membrane", "experiment": "Inhibition of mitochondrial membrane potential in mouse 4T1 cells assessed as green fluorescence at 3.12 uM preincubated for 4 hrs followed by exposure to laser irradiation of 808 nm for 2 mins and subsequent incubation for 20 hrs by JC-1 dye based analysis", "type": "cell membranes", "details": "time 1442.0 min"}, "[3]": {"experiment": "Biodistribution in liver of female BALB/c mouse bearing mouse 4T1 cells at 2.5 mg/kg, iv measured up to 12 hrs by fluorescence imaging analysis", "type": "ADME, organism-based", "details": "in vivo"}, "[4]": {"experiment": "Drug accumulation in tumor of female BALB/c mouse bearing mouse 4T1 cells assessed as increase in fluorescence intensity at 2.5 mg/kg, iv measured after 4 hrs by fluorescence imaging analysis", "type": "ADME, organism-based, Neoplasm", "details": "in vivo"}, "[5]": {"experiment": "Toxicity in female BALB/c mouse bearing mouse 4T1 cells assessed as body weight at 2.5 mg/kg, iv pretreated for 4 hrs followed by exposure to laser irradiation of 808 nm for 5 mins on every 2 days treated for 15 days", "type": "organism-based", "details": "in vivo, 360 h, time 15 day"}, "4T1 [6]": {"test_system": "4T1", "experiment": "Antitumor activity against mouse 4T1 cells implanted in female BALB/c mouse assessed as tumor growth inhibition at 2.5 mg/kg, iv pretreated for 4 hrs followed by exposure to laser irradiation of 808 nm for 5 mins on every 2 days treated for 15 days", "type": "functional, organism-based", "details": "time 15.0 day"}, "4T1 [7]": {"test_system": "4T1", "experiment": "Antitumor activity against mouse 4T1 cells implanted in female BALB/c mouse assessed as decrease in tumor volume at 2.5 mg/kg, iv treated for 4 hrs on every 2 days treated for 15 days", "type": "functional, organism-based", "details": "time 15.0 day"}, "4T1 [8]": {"test_system": "4T1", "experiment": "Antitumor activity against mouse 4T1 cells implanted in female BALB/c mouse assessed as cellular damage at 2.5 mg/kg, iv pretreated for 4 hrs followed by exposure to laser irradiation of 808 nm for 5 mins on every 2 days treated for 15 days by H and E staining based analysis", "type": "functional, organism-based", "details": "time 15.0 day"}, "4T1 [9]": {"test_system": "4T1", "experiment": "Antitumor activity against mouse 4T1 cells implanted in female BALB/c mouse assessed as nuclei rupture at 2.5 mg/kg, iv pretreated for 4 hrs followed by exposure to laser irradiation of 808 nm for 5 mins on every 2 days treated for 15 days by H and E staining based analysis", "type": "functional, organism-based", "details": "time 15.0 day"}, "4T1 [10]": {"test_system": "4T1", "experiment": "Antitumor activity against mouse 4T1 cells implanted in female BALB/c mouse assessed as necrotic tissue at 2.5 mg/kg, iv pretreated for 4 hrs followed by exposure to laser irradiation of 808 nm for 5 mins on every 2 days treated for 15 days by H and E staining based analysis", "type": "functional, organism-based", "details": "time 15.0 day"}, "4T1 [11]": {"test_system": "4T1", "experiment": "Antitumor activity against mouse 4T1 cells implanted in female BALB/c mouse assessed as cellular damage at 2.5 mg/kg, iv treated on every 2 days treated for 15 days by H and E staining based analysis", "type": "functional, organism-based", "details": "time 15.0 day"}, "H22": {"test_system": "H22", "experiment": "Antitumor activity against mouse H22 cells implanted in female ICR mouse assessed as tumor growth inhibition at 2.5 mg/kg, iv pretreated for 4 hrs followed by exposure to laser irradiation of 808 nm for 5 mins on every 2 days treated for 15 days", "type": "functional, organism-based", "details": "time 15.0 day"}, "[12]": {"experiment": "Toxicity in female BALB/c mouse bearing mouse 4T1 cells assessed as damage in heart at 2.5 mg/kg, iv pretreated for 4 hrs followed by exposure to laser irradiation of 808 nm for 5 mins on every 2 days treated for 15 days by H and E staining based analysis", "type": "organism-based", "details": "in vivo, 360 h, time 15 day"}, "[13]": {"experiment": "Toxicity in female BALB/c mouse bearing mouse 4T1 cells assessed as damage in lung at 2.5 mg/kg, iv pretreated for 4 hrs followed by exposure to laser irradiation of 808 nm for 5 mins on every 2 days treated for 15 days by H and E staining based analysis", "type": "organism-based", "details": "in vivo, 360 h, time 15 day"}, "[14]": {"experiment": "Toxicity in ICR mouse bearing mouse H22 cells assessed as damage in spleen at 2.5 mg/kg, iv pretreated for 4 hrs followed by exposure to laser irradiation of 808 nm for 5 mins on every 2 days treated for 15 days by H and E staining based analysis", "type": "organism-based", "details": "in vivo, 360 h, time 15 day"}, "HepG2 [15]": {"test_system": "HepG2", "experiment": "Photothermal cytotoxicity against human HepG2 cells up to 25 uM preincubated for 4 hrs followed by exposure to laser irradiation of 808 nm for 2 mins and subsequent incubation for 20 hrs by MTT assay", "type": "functional, cell-based", "details": "time 1442.0 min"}, "4T1 [16]": {"test_system": "4T1", "experiment": "Photothermal cytotoxicity against mouse 4T1 cells up to 25 uM preincubated for 4 hrs followed by exposure to laser irradiation of 808 nm for 2 mins and subsequent incubation for 20 hrs by MTT assay", "type": "functional, cell-based"}, "Mus musculus": {"test_system": "Mus musculus", "experiment": "Photothermal effect in female BALB/c mouse bearing mouse 4T1 cells at 42 degreeC at 1.8 mg/kg, iv pretreated for 4 hrs followed by exposure to laser irradiation of 808 nm for 5 mins", "type": "functional, organism-based", "details": "time 245.0 min"}, "[17]": {"experiment": "Drug excretion in female BALB/c mouse bearing mouse 4T1 cells at 1.8 mg/kg, iv measured up to 12 hrs by fluorescence imaging analysis", "type": "ADME, organism-based", "details": "in vivo"}, "[18]": {"experiment": "Toxicity in female BALB/c mouse bearing mouse 4T1 cells assessed as body weight at 1.8 mg/kg, iv pretreated for 4 hrs followed by exposure to laser irradiation of 808 nm for 5 mins on every 2 days treated for 15 days", "type": "organism-based", "details": "in vivo, 360 h, time 15 day"}, "4T1 [19]": {"test_system": "4T1", "experiment": "Antitumor activity against mouse 4T1 cells implanted in female BALB/c mouse assessed as cellular damage at 1.8 mg/kg, iv pretreated for 4 hrs followed by exposure to laser irradiation of 808 nm for 5 mins on every 2 days treated for 15 days by H and E staining based analysis", "type": "functional, organism-based", "details": "time 15.0 day"}, "4T1 [20]": {"test_system": "4T1", "experiment": "Antitumor activity against mouse 4T1 cells implanted in female BALB/c mouse assessed as cellular damage at 1.8 mg/kg, iv treated on every 2 days treated for 15 days by H and E staining based analysis", "type": "functional, organism-based", "details": "time 15.0 day"}, "[21]": {"experiment": "Toxicity in female BALB/c mouse bearing mouse 4T1 cells assessed as damage in lung at 1.8 mg/kg, iv pretreated for 4 hrs followed by exposure to laser irradiation of 808 nm for 5 mins on every 2 days treated for 15 days by H and E staining based analysis", "type": "organism-based", "details": "in vivo, 360 h, time 15 day"}, "[22]": {"experiment": "Toxicity in ICR mouse bearing mouse H22 cells assessed as damage in heart at 1.8 mg/kg, iv pretreated for 4 hrs followed by exposure to laser irradiation of 808 nm for 5 mins on every 2 days treated for 15 days by H and E staining based analysis", "type": "organism-based", "details": "in vivo, 360 h, time 15 day"}, "[23]": {"experiment": "Toxicity in ICR mouse bearing mouse H22 cells assessed as damage in liver at 1.8 mg/kg, iv pretreated for 4 hrs followed by exposure to laser irradiation of 808 nm for 5 mins on every 2 days treated for 15 days by H and E staining based analysis", "type": "organism-based", "details": "in vivo, 360 h, time 15 day"}, "[24]": {"experiment": "Toxicity in ICR mouse bearing mouse H22 cells assessed as damage in spleen at 1.8 mg/kg, iv pretreated for 4 hrs followed by exposure to laser irradiation of 808 nm for 5 mins on every 2 days treated for 15 days by H and E staining based analysis", "type": "organism-based", "details": "in vivo, 360 h, time 15 day"}, "[25]": {"experiment": "Toxicity in ICR mouse bearing mouse H22 cells assessed as damage in kidney at 1.8 mg/kg, iv pretreated for 4 hrs followed by exposure to laser irradiation of 808 nm for 5 mins on every 2 days treated for 15 days by H and E staining based analysis", "type": "organism-based", "details": "in vivo, 360 h, time 15 day"}}, "note": "Active and inactive are the calls of the source. The rule behind the calls is not given here.", "data": [{"smiles": "COCCOCCOCCN1/C(=C/C=C/C(=C/C=C/C2=[N+](CCOCCOCCOC)c3ccccc3C2(C)C)C(=O)OC)C(C)(C)c2ccccc21.[I-]", "values": [{"measurement": "Activity", "setting": "4T1 [1]", "result": 55, "unit": "%"}, {"measurement": "Activity", "setting": "HepG2 [2]", "result": 55, "unit": "%"}, {"measurement": "inhibition", "setting": "Mitochondrial membrane", "result": "Active"}, {"measurement": "Drug uptake", "setting": "[3]", "result": "Active"}, {"measurement": "Drug uptake", "setting": "[4]", "result": "Active"}, {"measurement": "Activity", "setting": "[5]", "result": 18, "unit": "g"}, {"measurement": "inhibition", "setting": "4T1 [6]", "result": "Active"}, {"measurement": "Activity", "setting": "4T1 [7]", "result": "inactive"}, {"measurement": "Activity", "setting": "4T1 [8]", "result": "Active"}, {"measurement": "Activity", "setting": "4T1 [9]", "result": "Active"}, {"measurement": "Activity", "setting": "4T1 [10]", "result": "Active"}, {"measurement": "Activity", "setting": "4T1 [11]", "result": "Not active; Minor Cell Damage Was Observed"}, {"measurement": "inhibition", "setting": "H22", "result": "Active"}, {"measurement": "Activity", "setting": "[12]", "result": "Non-toxic"}, {"measurement": "Activity", "setting": "[13]", "result": "Non-toxic"}, {"measurement": "Activity", "setting": "[14]", "result": "Non-toxic"}]}, {"smiles": "COC(=O)C(=C\\C=C\\C1=[N+](C)c2ccccc2C1(C)C)/C=C/C=C1/N(C)c2ccccc2C1(C)C.[I-]", "values": [{"measurement": "Activity", "setting": "HepG2 [15]", "result": "Not active; Limited Photo-Thermal Toxicity Was Observed"}, {"measurement": "Activity", "setting": "4T1 [16]", "result": "Not active; Limited Photo-Thermal Toxicity Was Observed"}, {"measurement": "Activity", "setting": "Mus musculus", "result": "Active"}, {"measurement": "Drug excretion", "setting": "[17]", "result": "Active"}, {"measurement": "Activity", "setting": "[18]", "result": 18, "unit": "g"}, {"measurement": "Activity", "setting": "4T1 [19]", "result": "Not active; Minor Cell Damage Was Observed"}, {"measurement": "Activity", "setting": "4T1 [20]", "result": "Not active; Minor Cell Damage Was Observed"}, {"measurement": "Activity", "setting": "[21]", "result": "Non-toxic"}, {"measurement": "Activity", "setting": "[22]", "result": "Non-toxic"}, {"measurement": "Activity", "setting": "[23]", "result": "Non-toxic"}, {"measurement": "Activity", "setting": "[24]", "result": "Non-toxic"}, {"measurement": "Activity", "setting": "[25]", "result": "Non-toxic"}]}]}
